Series [1] in a line: Plasma pharmacokinetics after a single dose of liquid or solid oat product (compartmental PK model). It counts as in vivo, humans. More on the design: V/F: unit not given here. To be noted: for Cmax / half-life / k el / Tmax: both sexes, oral; for Cmax / half-life / k el: human, plasma; for Cmax / half-life / k el / Tmax / T1/2 / ka / V/F / AUC(norm): single dose; for k el: elimination rate (Table 2), read-out: ke (converted); for Tmax: human plasma, derived from PK model; for V, population estimate (RSE%) / ka, population estimate (RSE%) / ke, population estimate (RSE%): Table S1 compartmental model; for ka: absorption rate (Table 2); for V/F: distribution volume over bioavailability; for AUC(norm): normalized for nmol intake. The source says:
A non-blinded, randomized two-way crossover study with two different oat products (solid or liquid) was designed to investigate the AVA and AVE PK after a single dose and after repeated dosing at three different doses, for respective food (Fig. 2). Since this is the first study of its kind, it is impossible to make any formal calculation of the number of subjects needed to show meaningful differences in plasma biomarker concentrations, since the variation is unknown. However, similar studies aimed for BFI discovery and validation of dose-response have typically used 5–30 subjects. We therefore considered 23 individuals as a good compromise between feasibility and possibilities to assess variation in biomarker concentrations, estimate pharmacokinetic parameters, dose response and performing modelling with good precision. A scientist not involved in the study, conducted the randomization using the RAR method (RandomizeR package) in R software environment and provided lists with allocated treatment sequences. The study was conducted in two phases. In the first phase, blood samples were drawn from 11 men and 12 women for 24 h after consumption of a single dose of either a solid or a liquid oat product on-site. Breakfast and lunch were also provided on-site. A single dose of solid (62 g of oat flakes) or liquid (196 mL of oat drink) containing individual AVAs and AVEs shown in Table 1 were consumed, respectively. Blood plasma samples were drawn for 24 h (0 h, 0.25 h, 0.5 h, 0.75 h, 1 h, 1.5 h, 2 h, 3 h, 4 h, 5 h, 6 h, 7 h, 8 h, 24 h). After the 24 h, at the second phase of the study, the corresponding product was further consumed three times per day for four days at either a low, medium, or high intake dose (98, 196 and 392 mL for liquid oats and 31, 62 and 123 g for oat flakes with corresponding contents of AVAs and AVEs (Table 1) in a Latin square design. Therefore, a total number of 8 participants (2 males and 6 females) were randomized to the low dose, 9 participants (3 males and 6 females) for medium dose and 6 participants (3males and 3 females) for the high dose. Participants consumed the provided products at home and were instructed to follow their habitual diets with restriction on the consumption of oat products. A list of relevant foods was provided as a guide. The oat flakes were pre-portioned into individual bags and could be consumed without heating, mixed with yoghurt, cottage cheese, sour milk or any liquid. Participants were instructed to consume the full amount, including the liquid or food the oats were mixed with. Liquid oat products were weighed prior consumption, and they were to be consumed without any additional food. In all cases the time of oat intake was recorded in a food journal. On the fifth day of phase II, a fasting sample was drawn. Fecal samples were collected at baseline and at the end of phase II of the intervention. Between each study period, there was a wash-out period of eight days where participants consumed their habitual diet. After the washout, participants started with a single dose and repeated dosing for the other product in the same way as for the first. The participants were instructed to avoid foods containing oats during the last three days prior to the start of the study and during the last three days of the wash-out period. Compliance was assessed based on information provided in a compliance journal during the study weeks as well as through 2-day food records. The oat products used in the study were provided to the participants. The flakes for the single dose were consumed with water ad lib and for the repeated dose they could be mixed with water, yoghurt, milk, sour milk or cottage cheese with the condition that all the amount of the oat product is consumed. The oat drink was consumed without any other product.
All blood samples were collected into EDTA-coated tubes by a trained nurse. […]

In series [2] the test system is Feacalibacterium prausnitzii. Description: Association of F. prausnitzii relative abundance at baseline with Cmax and AUC strata (logistic regression). More on the design: species or system humans. To be noted: liquid, solid, or combined; single dose phase I. The method, then:
DNA was extracted from approximately 35 mg of each of the 451 fecal samples using the NucleoSpin Soil kit (Macherey-Nagel, 740780.250 M), following the manufacturer’s instructions. DNA yield was quantified using the Qubit 1X dsDNA Broad Range assay kit (Thermo Fisher Scientific, Q33266). For metagenomic shotgun sequencing, libraries were prepared with the MGIEasy Fast FS DNA Library Prep Set (MGI Tech Co., Ltd., 940-000030-00, Werheim, Germany), using 400 ng of DNA per sample. The library preparation process included DNA shearing for 12.5 min, followed by end repair, A-tailing, and magnetic bead-based cleanup. Adapter ligation and cleanup were then performed, followed by PCR amplification and magnetic bead-based size selection of the final library product. Library quality was assessed using the Qubit 1X dsDNA HS Assay Kit (Thermo Fisher Scientific, Q33231) and the Agilent High Sensitivity D1000 Assay Kit (Agilent Technologies, 5067–5584 and 5067–5585, Santa Clara, CA, USA). Pooled libraries were circularized, barcoded, and used as templates for DNA nanoball preparation. The nanoballs were then analyzed on the DNBSEQ-T7 platform (MGI Tech Co., Ltd.) using the DNBSEQ-T7RS High-throughput Sequencing Set (FCL PE150), according to the manufacturer’s guidelines.
Raw metagenomic reads underwent quality control to remove low-quality sequences, adapters, and contaminants using Fastp (version 0.23.2, default parameters). High-quality reads were filtered to exclude human reads (GRCh38_noalt_as) using Bowtie2 [38] (version 2.5.3). The quality-filtered reads were then aligned to the taxonomy database using MetaPhlAn (version 4.0.6, default parameters) to generate relative abundance profiles. For inclusion in the analysis, a species was required to be present in at least three samples.
For the seven metabolites AVE A, AVE B, AVA 2c, AVA 2f, AVA 2fd, AVA 2p, AVA 2pd analysed at phase I after the single dose of oat products, Cmax and area under the curve (AUC) were stratified based on less than the median or more or equal to the […]. Thereafter, for each metabolite, it was investigated whether the relative abundance of F. prausnitzii at baseline could predict the strata since this bacterium has previously been reported to be responsible for production of their dihydro-metabolites. Logistic regression with a binomial distribution and a logistic link function was used to separately analyze the liquid and solid products. When analyzing liquid and solid products together, a generalized linear mixed model with a binomial distribution and a logistic link function was used, with identity included as a random factor.

[3] abbreviates: 62 g of oat flakes, solid oat product (62 g oat flakes).
The mark [4] stands for this setting: 196 mL of oat drink, liquid oat product (196 mL oat drink).

Like-named read-outs stand apart in the source and are kept apart here.

`CC1OC(OC2C(OC3CCC4(C)C(=CCC5C4CCC4(C)C5CC5OC6(CCC(C)(COC7OC(CO)C(O)C(O)C7O)O6)C(C)C54)C3)OC(CO)C(OC3OC(CO)C(O)C(OC4OC(CO)C(O)C(O)C4O)C3O)C2O)C(O)C(O)C1O` (centres unmarked) [AVE B, Avenacoside B]: in series [1] (62 g of oat flakes, solid), the highest concentration (Cmax) worked out at 0.64 ± 0.07 nM, the half-life was 3.76 ± 0.29 h and the k el is 5e-05 s⁻¹. In series [1] (196 mL of oat drink, liquid), the Cmax amounted to 0.44 ± 0.05 nM, the half-life was 2.5 h and the k el is 7.5e-05 s⁻¹. Besides, in series [1] (setting [3]), the Tmax came out at 3.29 ± 0.14 h. Further, the Tmax in series [1] (setting [4]) was found to be 2.98 ± 0.13 h. In addition, in series [1] (liquid), the “V, population estimate (RSE%)” value is reported as 2200 (3) L; the “ka, population estimate (RSE%)” value is recorded as 0.41 (9) 1/h; the “ke, population estimate (RSE%)” value is 0.27 (3) 1/h; the T1/2 is listed as 2.56 ± 0.20^2 h. In series [1] (liquid), the ka turned out to be 0.41 ± 0.02 h⁻¹, the V/F amounted to 2079 ± 212 and the “AUC(norm)” value came to 1.8 ± 0.2 nM·h. In series [1] (solid), the “V, population estimate (RSE%)” value is listed as 2600 (21) L; the “ka, population estimate (RSE%)” value was 0.45 (22) 1/h; the “ke, population estimate (RSE%)” value is 0.19 (20) 1/h; the ka is 0.46 ± 0.03 h⁻¹. In series [1] (solid), the V/F worked out at 2606 ± 266 and the “AUC(norm)” value came out at 2.1 ± 0.3 nM·h.
On to `O=C(/C=C/C=C/c1ccc(O)cc1)Nc1ccc(O)cc1C(=O)O` [AVA 2pd], for which the “association between F. prausnitzii abundance at baseline and Cmax and AUC” value in series [2] is recorded as “no significant associations”. Besides, in series [1] (62 g of oat flakes, solid), the concentration peaked (Cmax) at 16.8 ± 1.78 nM, the half-life is 2.63 ± 0.2 h and the k el is 7.22e-05 s⁻¹. Further, in series [1] (196 mL of oat drink, liquid), the Cmax worked out at 3.1 ± 0.31 nM, the half-life was 2.5 h and the k el is 7.78e-05 s⁻¹. Further, the Tmax in series [1] (setting [3]) came out at 2.31 ± 0.1 h. Moreover, the Tmax in series [1] (setting [4]) came out at 1.6 ± 0.07 h. Also, in series [1] (liquid), the “V, population estimate (RSE%)” value was 130 (16) L; the “ka, population estimate (RSE%)” value is recorded as 2.4 (9) 1/h; the “ke, population estimate (RSE%)” value was 0.30 (13) 1/h; the T1/2 was 2.45 ± 0.19 h. In series [1] (liquid), the ka is on record as 2.40 ± 0.1^1 1/h and the V/F is reported as 131 ± 13^2. Also, in series [1] (solid), the “V, population estimate (RSE%)” value was 190 (22) L; the “ka, population estimate (RSE%)” value was 1.5 (10) 1/h; the “ke, population estimate (RSE%)” value is listed as 0.27 (17) 1/h; the ka came to 1.48 ± 0.10 h⁻¹. Besides, the V/F in series [1] (solid) is 189 ± 19.
Regarding `COc1cc(/C=C/C=C/C(=O)Nc2ccc(O)cc2C(=O)O)ccc1O` [AVA 2fd], in series [2], the “association between F. prausnitzii abundance at baseline and Cmax and AUC” value is given as “no significant associations”. Moreover, in series [1] (62 g of oat flakes, solid), the peak level (Cmax) was 7.34 ± 0.78 nM, the half-life was 1.65 ± 0.13 h and the k el was 0.000117 s⁻¹. In series [1] (196 mL of oat drink, liquid), the Cmax turned out to be 2.46 ± 0.25 nM, the half-life was 1.3 h and the k el is 0.000144 s⁻¹. The Tmax in series [1] (setting [3]) was 1.53 ± 0.07 h. Further, the Tmax in series [1] (setting [4]) stood at 1.01 ± 0.04 h. In series [1] (liquid), the “V, population estimate (RSE%)” value is 210 (13) L; the “ka, population estimate (RSE%)” value is on record as 3.6 (10) 1/h; the “ke, population estimate (RSE%)” value is 0.52 (14) 1/h; the T1/2 is given as 1.33 ± 0.10 h. Also, in series [1] (liquid), the ka is listed as 3.6 ± 0.2^1 1/h and the V/F is given as 211 ± 21^2. For the same compound, in series [1] (solid), the “V, population estimate (RSE%)” value is given as 320 (22) L; the “ka, population estimate (RSE%)” value is reported as 2.2 (10) 1/h; the “ke, population estimate (RSE%)” value is given as 0.42 (17) 1/h; the ka is 2.2 ± 0.12 h⁻¹. Besides, in series [1] (solid), the V/F came to 314 ± 32.
With `CC1OC(OC2C(OC3CCC4(C)C(=CCC5C4CCC4(C)C5CC5OC6(CCC(C)(COC7OC(CO)C(O)C(O)C7O)O6)C(C)C54)C3)OC(CO)C(OC3OC(CO)C(O)C(O)C3O)C2O)C(O)C(O)C1O` (centres unmarked) [AVE A, Avenacoside A], in series [1] (62 g of oat flakes, solid), the Cmax was found to be 2.03 ± 0.22 nM, the half-life is 3.32 ± 0.26 h and the k el is 5.83e-05 s⁻¹. In addition, in series [1] (196 mL of oat drink, liquid), the concentration peaked (Cmax) at 1.31 ± 0.14 nM, the half-life is 3.2 h and the k el was 6.39e-05 s⁻¹. Also, the Tmax in series [1] (setting [3]) stood at 1.78 ± 0.08 h. In addition, the Tmax in series [1] (setting [4]) was 2.51 ± 0.11 h. Further, in series [1] (liquid), the “V, population estimate (RSE%)” value is reported as 5900 (3) L; the “ka, population estimate (RSE%)” value is reported as 1.4 (3) 1/h; the “ke, population estimate (RSE%)” value was 0.21 (10) 1/h; the T1/2 came to 3.17 ± 0.24 h. Further, in series [1] (liquid), the ka was 1.4 ± 0.1^1 1/h and the V/F is 6718 ± 686^2. Besides, in series [1] (solid), the “V, population estimate (RSE%)” value was 9700 (2) L; the “ka, population estimate (RSE%)” value was 2.7 (8) 1/h; the “ke, population estimate (RSE%)” value is reported as 0.22 (6) 1/h; the ka was found to be 2.3 ± 0.13 h⁻¹. In addition, in series [1] (solid), the V/F is listed as 11,055 ± 1130.

These data come from publication PMC12418703, “Avenanthramides and avenacosides as biomarkers of oat intake: a pharmacokinetic study of solid and liquid oat consumption under single and repeated dose conditions” (Nutrition Journal, 2025).
